Data reported in patent US20240199722A1, “NANOPLATFORM FOR TARGETING MACROPHAGE AND COMPOSITION FOR PREVENTION OR TREATMENT OF METASTATIC CANCER” (SEOUL NATIONAL UNIVERSITY R&DB FOUNDATION, priority 2021, published 2024).

Test system: macrophages at lung metastatic site
Assay: Early diagnosis of cancer metastasis in the 4T1-luc model: FDG-PET versus 111In-MSA-FL SPECT/CT (FIG. 8)
Format: in vivo, mouse
Text: In order to verify the possibility of early diagnosis of cancer metastasis of the albumin-based nanoplatform conjugated with the mannosyl group, a model that may represent cancer metastasis was reproduced and confirmed through tissue staining whether it could actually reflect metastasis.
This animal model is known to naturally cause metastasis to secondary organs after transplanting cancer cells into mice, and is especially known to cause metastasis to the lung area, similar to the pattern of existing breast cancer.

OC[C@H]1O[C@@H](O)[C@H]([18F])[C@@H](O)[C@@H]1O [FDG]
time at which cancer metastasis could be diagnosed (day after modeling): 28 days | nuclear medicine signal/image in the lung area before metastasis (imaging on days 7, 14, 21, 28): could hardly be confirmed | uptake at the metastatic site, statistical significance (quantification FIG. 8(b)): statistically significant difference only on Day 28
